Measurements as given in US20220095618A1, “HERBICIDAL COMPOSITIONS” (SYNGENTA CROP PROTECTION AG, priority 2019, published 2022).

Key:
Assay in all cases: Post-emergence efficacy of compounds of Formula (I) (B1), glasshouse
Format in all cases: in vivo
[1] = test system: Amaranthus palmeri (AMAPA); conditions: Application Rate 500 g/Ha, evaluated after 13 days
Procedure: (§1) Seeds of a variety of test species were sown in standard Iaom-based soil in pots:— Ipomoea hederacea (IPOHE), Euphorbia heterophylla (EPHHL), Chenopodium album (CHEAL), Amaranthus palmeri (AMAPA), Lolium perenne (LOLPE), Digitaria sanguinalis (DIGSA), Eleusine indica (ELEIN), Echinochloa crus-galli (ECHCG), Setaria faberi (SETFA). After cultivation for 14 days (post-emergence) under controlled conditions in a glasshouse (at 24/16° C., day/night; 14 hours light; 65% humidity), the plants were sprayed with an aqueous spray solution derived from the dissolution of the technical active ingredient Formula (I) in a small amount of acetone and a special solvent and emulsifier mixture referred to as IF50 (11.12% Emulsogen EL360 TM+44.44% N-methylpyrrolidone+44.44% Dowanol DPM glycol ether), to create a 50 g/I solution which was then diluted to required concentration using 0.25% or 1% Empicol ESC70 (Sodium lauryl ether sulphate)+1% ammonium sulphate as diluent. The delivery of the aqueous spray solution was via a laboratory track sprayer which delivered the aqueous spray composition at a rate of 200 litres per hectare, using a flat fan nozzle (Teejet 11002VS) and an application volume of 200 litre/ha (at 2 bar).
(§2) The test plants were then grown in a glasshouse under controlled conditions (at 24/16° C., day/night; 14 hours light; 65% humidity) and watered twice daily. After 13 days the test was evaluated (100=total damage to plant; 0=no damage to plant).

[2] = test system: Chenopodium album (CHEAL); conditions: Application Rate 500 g/Ha, evaluated after 13 days; for pest or weed control at 500 g/ha: Chenopodium album, post-emergence, 312 h, read-out: Control of CHEAL after post-emergence application (100=total damage to plant; 0=no damage to plant)
Procedure: as §1, §2

[3] = test system: Digitaria sanguinalis (DIGSA); conditions: Application Rate 500 g/Ha, evaluated after 13 days; for pest or weed control at 500 g/ha: Digitaria sanguinalis, post-emergence, 312 h, read-out: Control of DIGSA after post-emergence application (100=total damage to plant; 0=no damage to plant)
Procedure: as §1, §2

[4] = test system: Echinochloa crus-galli (ECHCG); conditions: Application Rate 500 g/Ha, evaluated after 13 days; for pest or weed control at 500 g/ha: Echinochloa crus-galli, post-emergence, 312 h, read-out: Control of ECHCG after post-emergence application (100=total damage to plant; 0=no damage to plant)
Procedure: as §1, §2

Eleusine indica (ELEIN) = conditions: Application Rate 500 g/Ha, evaluated after 13 days; for pest or weed control at 500 g/ha: Eleusine indica, post-emergence, 312 h, read-out: Control of ELEIN after post-emergence application (100=total damage to plant; 0=no damage to plant)
Procedure: as §1, §2

[5] = test system: Euphorbia heterophylla (EPHHL); conditions: Application Rate 500 g/Ha, evaluated after 13 days; for pest or weed control at 500 g/ha: Euphorbia heterophylla, post-emergence, 312 h, read-out: Control of EPHHL after post-emergence application (100=total damage to plant; 0=no damage to plant)
Procedure: as §1, §2

Lolium perenne (LOLPE) = conditions: Application Rate 500 g/Ha, evaluated after 13 days; for pest or weed control at 500 g/ha: Lolium perenne, post-emergence, 312 h, read-out: Control of LOLPE after post-emergence application (100=total damage to plant; 0=no damage to plant)
Procedure: as §1, §2

Setaria faberi (SETFA) = conditions: Application Rate 500 g/Ha, evaluated after 13 days; for pest or weed control at 500 g/ha: Setaria faberi, post-emergence, 312 h, read-out: Control of SETFA after post-emergence application (100=total damage to plant; 0=no damage to plant)
Procedure: as §1, §2

[6] = test system: Ipomoea hederacea (IPOHE); conditions: Application Rate 500 g/Ha, evaluated after 13 days; for pest or weed control at 500 g/ha: Ipomoea hederacea, post-emergence, 312 h, read-out: Control of IPOHE after post-emergence application (100=total damage to plant; 0=no damage to plant)
Procedure: as §1, §2

Structure (SMILES): Cc1ccc(-c2cc[n+](CCS(=O)(=O)[O-])nc2)nn1 [Compound 1.014]
- pest or weed control at 500 g/ha ([1]; Amaranthus palmeri, post-emergence, 312 h, read-out: Control of AMAPA after post-emergence application (100=total damage to plant; 0=no damage to plant)): 100%
- pest or weed control at 500 g/ha [2]: 100%
- pest or weed control at 500 g/ha [3]: 100%
- pest or weed control at 500 g/ha [4]: 80%
- pest or weed control at 500 g/ha (Eleusine indica (ELEIN)): 90%
- pest or weed control at 500 g/ha [5]: 100%
- pest or weed control at 500 g/ha (Lolium perenne (LOLPE)): 90%
- pest or weed control at 500 g/ha (Setaria faberi (SETFA)): 100%

Structure (SMILES): O=C(O)CC[n+]1ccc(-c2ncccn2)cn1.[Cl-] [Compound 1.010, 3-(4-pyrimidin-2-ylpyridazin-1-ium-1-yl)propanoic acid chloride]
- pest or weed control at 500 g/ha [2]: 100%
- pest or weed control at 500 g/ha [3]: 100%
- pest or weed control at 500 g/ha [4]: 100%
- pest or weed control at 500 g/ha (Eleusine indica (ELEIN)): 100%
- pest or weed control at 500 g/ha [5]: 100%
- Control of IPOHE after post-emergence application (100=total damage to plant; 0=no damage to plant) [6]: 40
- Control of LOLPE after post-emergence application (100=total damage to plant; 0=no damage to plant) (Lolium perenne (LOLPE)): 90
- pest or weed control at 500 g/ha (Setaria faberi (SETFA)): 100%

Structure (SMILES): COc1cc(-c2cc[n+](CCCS(=O)(=O)[O-])nc2)ncn1 [Compound 1.019]
- pest or weed control at 500 g/ha [2]: 100%
- pest or weed control at 500 g/ha [3]: 100%
- pest or weed control at 500 g/ha [4]: 70%
- pest or weed control at 500 g/ha (Eleusine indica (ELEIN)): 90%
- pest or weed control at 500 g/ha [5]: 100%
- pest or weed control at 500 g/ha [6]: 60%
- pest or weed control at 500 g/ha (Lolium perenne (LOLPE)): 30%
- pest or weed control at 500 g/ha (Setaria faberi (SETFA)): 100%

Structure (SMILES): Nc1ccnc(-c2cc[n+](CCS(=O)(=O)O)nc2)n1 [Compound 1.008]
- pest or weed control at 500 g/ha [2]: 100%
- pest or weed control at 500 g/ha [3]: 100%
- pest or weed control at 500 g/ha [4]: 100%
- pest or weed control at 500 g/ha (Eleusine indica (ELEIN)): 100%
- pest or weed control at 500 g/ha [5]: 80%
- pest or weed control at 500 g/ha [6]: 40%
- pest or weed control at 500 g/ha (Lolium perenne (LOLPE)): 60%
- pest or weed control at 500 g/ha (Setaria faberi (SETFA)): 100%

Structure (SMILES): O=C(O)CC[n+]1ccc(-c2ncccn2)cn1.O=C([O-])C(F)(F)F [Compound 1.023, 3-(4-pyrimidin-2-ylpyridazin-1-ium-1-yl)propanoic acid 2,2,2-trifluoroacetate]
- Control of AMAPA after post-emergence application (100=total damage to plant; 0=no damage to plant) [1]: 100
- Control of CHEAL after post-emergence application (100=total damage to plant; 0=no damage to plant) [2]: 80
- Control of DIGSA after post-emergence application (100=total damage to plant; 0=no damage to plant) [3]: 100
- Control of ECHCG after post-emergence application (100=total damage to plant; 0=no damage to plant) [4]: 100
- Control of ELEIN after post-emergence application (100=total damage to plant; 0=no damage to plant) (Eleusine indica (ELEIN)): 100
- Control of EPHHL after post-emergence application (100=total damage to plant; 0=no damage to plant) [5]: 100
- Control of IPOHE after post-emergence application (100=total damage to plant; 0=no damage to plant) [6]: 30
- Control of SETFA after post-emergence application (100=total damage to plant; 0=no damage to plant) (Setaria faberi (SETFA)): 100

Structure (SMILES): Cc1cnc(-c2cc[n+](CCS(=O)(=O)[O-])nc2)nc1 [Compound 1.009]
- pest or weed control at 500 g/ha [2]: 100%
- pest or weed control at 500 g/ha [3]: 100%
- pest or weed control at 500 g/ha [4]: 100%
- pest or weed control at 500 g/ha (Eleusine indica (ELEIN)): 100%
- pest or weed control at 500 g/ha [5]: 70%
- pest or weed control at 500 g/ha [6]: 30%
- pest or weed control at 500 g/ha (Lolium perenne (LOLPE)): 80%
- pest or weed control at 500 g/ha (Setaria faberi (SETFA)): 100%

Structure (SMILES): Cc1ccnc(-c2cc[n+](CCC(=O)[O-])nc2)n1 [Compound 1.015]
- pest or weed control at 500 g/ha [2]: 100%
- pest or weed control at 500 g/ha [3]: 100%
- pest or weed control at 500 g/ha [4]: 100%
- pest or weed control at 500 g/ha (Eleusine indica (ELEIN)): 100%
- pest or weed control at 500 g/ha [5]: 80%
- pest or weed control at 500 g/ha [6]: 30%
- pest or weed control at 500 g/ha (Lolium perenne (LOLPE)): 80%
- pest or weed control at 500 g/ha (Setaria faberi (SETFA)): 100%

Structure (SMILES): Cc1cc(C)nc(-c2cc[n+](CCC(=O)[O-])nc2)n1 [Compound 1.017]
- pest or weed control at 500 g/ha [2]: 100%
- pest or weed control at 500 g/ha [3]: 100%
- pest or weed control at 500 g/ha [4]: 70%
- pest or weed control at 500 g/ha (Eleusine indica (ELEIN)): 100%
- pest or weed control at 500 g/ha [5]: 80%
- pest or weed control at 500 g/ha [6]: 50%
- pest or weed control at 500 g/ha (Lolium perenne (LOLPE)): 60%
- pest or weed control at 500 g/ha (Setaria faberi (SETFA)): 100%
